Values of other authors in EP4506356A1, “METHANOL-INDUCIBLE PROMOTER AND USE THEREOF IN PREPARATION OF L-ALANYL-L-GLUTAMINE” (Wuhan Grand Hoyo Co., Ltd., priority 2022, dated 2023).
Values after ≈ are worked out from the molar mass of the structure shown. Residues, ends and D or L forms follow the SMILES beside them.

## C[C@H](N)C(=O)N[C@@H](CCC(N)=O)C(=O)O [Alanyl-glutamine dipeptide, L-alanyl-L-glutamine] (H-Ala-Gln-OH)
  water solubility: 586 mg/mL (≈ 2700 mM)
